The source of these data is patent US20230372319A1, “Combination Treatment of Cancer” (Ares Trading S.A., priority 2020, published 2023).

The test system of assay [1] is MDA-MB-436 human breast cancer cell line. Nature of the assay: MDA-MB-436 breast cancer model. The assay is classed as in vivo. The settings on record: NOD/SCID mice, bintrafusp alfa 492 μg i.v. BiWx4, niraparib 35 mg/kg p.o. QDx28.
Protocol: NOD/SCID mice were inoculated with MDA-MB-436 cells (10×10^6) in the right flank (day −19). […] Tumor volumes were measured twice weekly and presented as mean ±SEM or as individual tumor volumes. P-values were calculated by two-way ANOVA with Tukey's or Sidak's post-test.
MDA-MB-436 (BRCA1-mut) cells were obtained from American Type Culture Collection (ATCC® HTB-130™) and were cultured in RPMI-1640 supplemented with 10% heat inactivated fetal bovine serum, 100 U/ml penicillin and 100 μg/ml streptomycin at 37° C. in an atmosphere of 5% CO2 in air. […] Cells were cultured under aseptic conditions and incubated at 37° C. with 5% CO2. […]
(§1) Tumor sizes were measured twice per week with digital calipers and recorded automatically using WinWedge software. Tumor volumes were calculated with the following formula: tumor volume (mm^3)=tumor length×width×height×0.5236. Tumor growth inhibition (TGI) was calculated with the following formula: TGI (%)=[1−(Ti−T0)/(Vi−V0)]×100, where Ti is the average tumor volume (mm^3) of a treatment group on a given day, T0 is the average tumor volume of the treatment group on the first day of treatment, Vi is the average tumor volume of the vehicle control group on the same day as Ti, and V0 is the average tumor volume of the vehicle control group on the first day of treatment. […]
The test system of the next assay is B16F10 cells. The assay is described as follows: Subcutaneous B16F10 melanoma model. The assay is classed as in vivo. The conditions noted are these: C57BL/6 mice, s.c.; bintrafusp alfa 492 μg i.v. days 0, 3, 6; niraparib 50 mg/kg p.o. QDx14; days 15/19; vs isotype control or monotherapies as stated.
Assay [2] deals with MDA-MB-231 human breast cancer. Nature of the assay: MDA-MB-231 breast cancer model. In kind it is in vivo. The settings on record: NOD/SCID mice, s.c.; bintrafusp alfa 492 μg i.v. BiWx4; niraparib 50 mg/kg p.o. QDx28; day 41; vs isotype control or monotherapies as stated.
Protocol: NOD/SCID mice were subcutaneously inoculated with MDA-MB-231 cells (10×10^6) in the right flank (day −19). […] Tumor volumes were measured twice weekly and presented as mean ±SEM or as individual tumor volumes. P-values were calculated by two-way ANOVA with Tukey's post-test.
MDA-MB-231 (BRCA-wt) cells were obtained from ATCC (ATCC® HTB-26™) and were cultured in Leibovitz's L-15 supplemented with 15% heat inactivated fetal bovine serum, 100 U/ml penicillin and 100 μg/ml streptomycin at 37° C. in an atmosphere of 5% CO2 in air. […] Cells were cultured under aseptic conditions and incubated at 37° C. with 5% CO2. Cells were passaged before in vivo implantation and adherent cells were harvested with TrypLE Express. […]
as §1
In assay [3] the test system is PARP activity in various cell lines. The conditions noted are these: cited from earlier work.
For a further assay, the system named is AT-3 cells. The assay is described as follows: Orthotopic AT-3 breast cancer model. The conditions noted are these: for median survival: isotype control 13 days; for responders (mice with tumor volumes<1 σ of the control group mean): day 13 post treatment start, n=10 mice/group. In kind it is in vivo, C57BL/6 mice.
A further assay has as its system RENCA cells. The settings on record: BALB/c mice, day 12; bintrafusp alfa 492 μg i.v. days 0, 2, 5; niraparib 50 mg/kg p.o. days 0-11.

Protocol for AT-3 cells: C57BL/6 mice were inoculated orthotopically with AT3 cells (0.5×10^6) in the mammary fat pad (day −11). […] Tumor volumes were measured twice weekly. In the lower plot, individual tumor volumes at day 13 are presented with a line representing the median tumor volume and error bars showing the 95% confidence intervals. […] P-values were calculated by two-way ANOVA with Tukey's post-test.
AT-3 cells were obtained from Sigma and were cultured in DMEM supplemented with 10% FBS, 1 mM sodium pyruvate, 2 mM non-essential amino acids, 15 mM HEPES, and 1×β-mercaptoethanol. […] Cells were cultured under aseptic conditions and incubated at 37° C. with 5% CO2. Cells were passaged before in vivo implantation and adherent cells were harvested with TrypLE Express.
For the efficacy study, 0.5×10^6 AT-3 cells were inoculated orthotopically into the right lower mammary at pad of C57BL/6 mice on day −11. Treatment was initiated on day 0 when average tumor volume reached ˜50 mm^3. Mice were sacrificed when tumor volumes reached ˜1000 mm^3.
Mice were randomized into treatment groups according to tumor volume on the day of treatment initiation (day 0).
The isotype control is a mutated version of anti-PD-L1, which completely lacks PD-L1 binding. In tumor-bearing mice, bintrafusp alfa (492 μg) or isotype control (400 μg) were administered with an intravenous (i.v.) injection in 0.2 mL PBS.
Radiation therapy (RT) was delivered at 8 Grey (Gy) on days 0-3.
Tumor sizes were measured twice per week with digital calipers and recorded automatically using WinWedge software. Tumor volumes were calculated with the following formula: tumor volume (mm^3)=tumor length×width×height×0.5236. Tumor growth inhibition (TGI) was calculated with the following formula: TGI (%)=[1−(Ti−T0)/(Vi−V0)]×100, where Ti is the average tumor volume (mm^3) of a treatment group on a given day, T0 is the average tumor volume of the treatment group on the first day of treatment, Vi is the average tumor volume of the vehicle control group on the same day as Ti, and V0 is the average tumor volume of the vehicle control group on the first day of treatment. To compare the percentage survival between different treatment groups, Kaplan-Meier survival curves were generated. Body weight was measured twice weekly and mice were sacrificed when their tumor volume exceeded 2,500 mm^3 for s.c. and intramuscular tumors and 1,000 mm^3 for mammary orthotopic tumors.
Protocol for B16F10 cells: C57BLJ6 mice were inoculated subcutaneously with B16F10 cells (0.5×10^6) in the flank. […] Tumor volumes were measured twice weekly and presented as mean ±SEM or as individual tumor volumes. P-values were calculated by two-way ANOVA with Tukey's or Sidak's post-test.
B16F10 cells were obtained from (ATCC) and were cultured in Dulbecco's Modified Eagle's medium (DMEM) supplemented with 10% fetal bovine serum (FBS). […] Cells were cultured under aseptic conditions and incubated at 37° C. with 5% CO2. Cells were passaged before in vivo implantation and adherent cells were harvested with TrypLE Express. […]
as §1
Protocol for RENCA cells: BALB/c mice were inoculated orthotopically with RENCA cells (0.5×10^5) in the left kidney (day −6). […] Mice were euthanized at day 12 and both kidneys were weighed. The weight of the tumor bearing left kidney was divided by the weight of the bilateral right kidney to calculate the kidney mass ratio. Individual kidney mass ratios were plotted, with a line representing the median.
The RENCA cells were obtained from ATCC (ATCC® CRL-2947™) and were cultured in RPMI-1640 with 10% heat inactivated fetal bovine serum and 0.1 mM non-essential amino acids. […] Cells were cultured under aseptic conditions and incubated at 37° C. with 5% CO2. […]
as §1

Consider `NC(=O)c1cccc2cn(-c3ccc([C@@H]4CCCNC4)cc3)nc12` [niraparib, (3S)-3-[4-{7-(aminocarbonyl)-2H-indazol-2-yl}phenyl]piperidine], for which, in assay [1], the “median time to disease progression after stopping treatment” value is 42.5 days. The “tumor growth (tumor volume), in words” value in assay [1] (vs isotype control or monotherapy as stated, days 41/69) is “significantly inhibited tumor growth”; with B16F10 cells it was “neither bintrafusp alfa nor niraparib monotherapies significantly reduced tumor growth”; in assay [2], “significantly reduced tumor growth”. In addition, in assay [3] (PARP activity stimulated by DNA damage caused by hydrogen peroxide), the “inhibitory concentration at 90% of control (1090) of PARP activity in cells” value is given as approximately 50 nM. Further, in assay [3] (read-out: IC50 of PARP activity in cells, PARP activity stimulated by DNA damage caused by hydrogen peroxide), the IC50 (commonly the concentration needed to halve the response being measured) is approximately 4 nM. The median survival with AT-3 cells (C57BL/6 mice) is reported as 13 days. Also, the “responders (mice with tumor volumes<1 σ of the control group mean)” value in the assay on AT-3 cells is reported as 5/10.
As for “bintrafusp alfa: anti-PD-L1:TGFβRII fusion protein; human IgG1 antibody against PD-L1 fused to extracellular domain of human TGF-β receptor II; SEQ ID NO: 7 and 8”, the “tumor growth (tumor volume), in words” value is recorded as “neither bintrafusp alfa nor niraparib monotherapies significantly reduced tumor growth” with B16F10 cells and “significantly reduced tumor growth” in assay [2]. For the same compound, the “relative kidney tumor burden: ratio of mass of tumor bearing kidney to bilateral normal kidney (median)” value in the assay with RENCA cells was determined as 3.74. The “tumor growth relative to isotype control or bintrafusp alfa monotherapy, in words” value with AT-3 cells (C57BL/6 mice, day 13, bintrafusp alfa 492 μg i.v. days 0, 3, 6, niraparib 50 mg/kg p.o. days 0-13) is “did not significantly reduce tumor growth”. Also, in the assay on AT-3 cells (C57BL/6 mice), the median survival is recorded as 13 days. In the assay with AT-3 cells, the “responders (mice with tumor volumes<1 σ of the control group mean)” value was 1/10.
